Reference: the supplement of paper PMC10307832

What was measured:
Experiment in all cases: relative viability (nuclei count vs DMSO), 5 days (fraction); higher = more cells survive
HCC-44 = system: HCC-44
In short: (§1)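 Cells from lung cancer lines were seeded into 1536-well plates and, one day later, dosed by pin tool. Treatments were either a single drug or a fixed dose of an anchor drug with five library-drug doses (not always all listed) in √10 steps. After 5 days, nuclei were stained in a one-step fixation (final 0.05% Triton X-100, 1% formaldehyde, 1 ug/ml Hoechst) and counted on 4× images, and relative viability is the treated-to-vehicle nuclei ratio, as the median of duplicate plates.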

NCI-H647 = system: NCI-H647
In short: as §1

NCI-H1437 = system: NCI-H1437
In short: as §1

LCLC-97TM1 = system: LCLC-97TM1
In short: as §1

PC-3 [JPC-3] = system: PC-3 [JPC-3]
In short: as §1

EKVX = system: EKVX
In short: as §1

NCI-H1666 = system: NCI-H1666
In short: as §1

H3255 = system: H3255
In short: as §1

NCI-H650 = system: NCI-H650
In short: as §1

LOU-NH91 = system: LOU-NH91
In short: as §1

SW 1573 = system: SW 1573
In short: as §1

201T = system: 201T
In short: as §1

NCI-H1975 = system: NCI-H1975
In short: as §1

NCI-H2342 = system: NCI-H2342
In short: as §1

HCC-827 = system: HCC-827
In short: as §1

LU99A = system: LU99A
In short: as §1

NCI-H2085 = system: NCI-H2085
In short: as §1

COR-L 105 = system: COR-L 105
In short: as §1

EPLC-272H = system: EPLC-272H
In short: as §1

NCI-H2170 = system: NCI-H2170
In short: as §1

NCI-H2087 = system: NCI-H2087
In short: as §1

BEN = system: BEN
In short: as §1

Question: How did the relative viability (HCC-44; first compound 0.01 µM) turn out when `O=c1cc(N2CCOCC2)oc2c(-c3cccc4c3sc3ccccc34)cccc12` + O=C(CCCCCCC(=O)Nc1ccccc1)NO [Vorinostat] (partner 1 µM) was run?
Answer: 1.05

Question: And the relative viability (HCC-44; first compound 0.03162 µM)?
Answer: 1.05

Question: And the relative viability (HCC-44; first compound 0.1 µM)?
Answer: 1.06

Question: What about the relative viability (HCC-44; first compound 0.3162 µM) of the same compound?
Answer: 1.03

Question: What about the relative viability (HCC-44; first compound 1 µM) of the same compound?
Answer: 1.07

Question: What about the relative viability (NCI-H647; first compound 0.01 µM) of the same compound?
Answer: 0.662

Question: And the relative viability (NCI-H647; first compound 0.03162 µM)?
Answer: 0.708

Question: What about the relative viability (NCI-H647; first compound 0.1 µM) of the same compound?
Answer: 0.462

Question: What about the relative viability (NCI-H647; first compound 0.3162 µM) of the same compound?
Answer: 0.695

Question: And the relative viability (NCI-H647; first compound 1 µM)?
Answer: 0.757

Question: What about the relative viability (NCI-H1437; first compound 0.01 µM) of the same compound?
Answer: 0.822

Question: What about the relative viability (NCI-H1437; first compound 0.03162 µM) of the same compound?
Answer: 0.874

Question: And the relative viability (NCI-H1437; first compound 0.1 µM)?
Answer: 0.866

Question: What about the relative viability (NCI-H1437; first compound 0.3162 µM) of the same compound?
Answer: 0.784

Question: And the relative viability (NCI-H1437; first compound 1 µM)?
Answer: 0.806

Question: What about the relative viability (LCLC-97TM1; first compound 0.01 µM) of the same compound?
Answer: 0.699

Question: And the relative viability (LCLC-97TM1; first compound 0.03162 µM)?
Answer: 0.725

Question: What about the relative viability (LCLC-97TM1; first compound 0.1 µM) of the same compound?
Answer: 0.3

Question: And the relative viability (LCLC-97TM1; first compound 0.3162 µM)?
Answer: 0.66

Question: And the relative viability (LCLC-97TM1; first compound 1 µM)?
Answer: 0.784

Question: And the relative viability (PC-3 [JPC-3]; first compound 0.01 µM)?
Answer: 0.76

Question: And the relative viability (PC-3 [JPC-3]; first compound 0.03162 µM)?
Answer: 0.774

Question: What about the relative viability (PC-3 [JPC-3]; first compound 0.1 µM) of the same compound?
Answer: 0.859

Question: What about the relative viability (PC-3 [JPC-3]; first compound 0.3162 µM) of the same compound?
Answer: 0.896

Question: And the relative viability (PC-3 [JPC-3]; first compound 1 µM)?
Answer: 0.401

Question: And the relative viability (EKVX; first compound 0.01 µM)?
Answer: 0.723

Question: And the relative viability (EKVX; first compound 0.03162 µM)?
Answer: 0.748

Question: What about the relative viability (EKVX; first compound 0.1 µM) of the same compound?
Answer: 0.681

Question: What about the relative viability (EKVX; first compound 0.3162 µM) of the same compound?
Answer: 0.753

Question: And the relative viability (EKVX; first compound 1 µM)?
Answer: 0.736

Question: And the relative viability (NCI-H1666; first compound 0.01 µM)?
Answer: 0.985

Question: And the relative viability (NCI-H1666; first compound 0.03162 µM)?
Answer: 1.04

Question: And the relative viability (NCI-H1666; first compound 0.1 µM)?
Answer: 1.19

Question: And the relative viability (NCI-H1666; first compound 0.3162 µM)?
Answer: 1.03

Question: What about the relative viability (NCI-H1666; first compound 1 µM) of the same compound?
Answer: 1.04

Question: What about the relative viability (H3255; first compound 0.01 µM) of the same compound?
Answer: 0.83

Question: And the relative viability (H3255; first compound 0.03162 µM)?
Answer: 0.837

Question: What about the relative viability (H3255; first compound 0.1 µM) of the same compound?
Answer: 0.759

Question: And the relative viability (H3255; first compound 0.3162 µM)?
Answer: 0.765

Question: What about the relative viability (H3255; first compound 1 µM) of the same compound?
Answer: 0.558

Question: What about the relative viability (NCI-H650; first compound 0.01 µM) of the same compound?
Answer: 0.537

Question: And the relative viability (NCI-H650; first compound 0.03162 µM)?
Answer: 0.412

Question: What about the relative viability (NCI-H650; first compound 0.3162 µM) of the same compound?
Answer: 0.496

Question: What about the relative viability (NCI-H650; first compound 1 µM) of the same compound?
Answer: 0.402

Question: And the relative viability (LOU-NH91; first compound 0.01 µM)?
Answer: 0.623

Question: And the relative viability (LOU-NH91; first compound 0.03162 µM)?
Answer: 0.881

Question: And the relative viability (LOU-NH91; first compound 0.1 µM)?
Answer: 0.894

Question: What about the relative viability (LOU-NH91; first compound 0.3162 µM) of the same compound?
Answer: 1.04

Question: And the relative viability (LOU-NH91; first compound 1 µM)?
Answer: 0.904

Question: And the relative viability (SW 1573; first compound 0.01 µM)?
Answer: 0.572

Question: And the relative viability (SW 1573; first compound 0.03162 µM)?
Answer: 0.767

Question: And the relative viability (SW 1573; first compound 0.1 µM)?
Answer: 0.55

Question: And the relative viability (SW 1573; first compound 0.3162 µM)?
Answer: 0.614

Question: What about the relative viability (SW 1573; first compound 1 µM) of the same compound?
Answer: 0.592

Question: And the relative viability (201T; first compound 0.01 µM)?
Answer: 0.961

Question: What about the relative viability (201T; first compound 0.03162 µM) of the same compound?
Answer: 0.95

Question: What about the relative viability (201T; first compound 0.1 µM) of the same compound?
Answer: 0.982

Question: What about the relative viability (201T; first compound 0.3162 µM) of the same compound?
Answer: 0.959

Question: What about the relative viability (201T; first compound 1 µM) of the same compound?
Answer: 0.915

Question: And the relative viability (NCI-H1975; first compound 0.01 µM)?
Answer: 0.672

Question: And the relative viability (NCI-H1975; first compound 0.03162 µM)?
Answer: 0.69

Question: And the relative viability (NCI-H1975; first compound 0.1 µM)?
Answer: 0.733

Question: And the relative viability (NCI-H1975; first compound 0.3162 µM)?
Answer: 0.641

Question: And the relative viability (NCI-H1975; first compound 1 µM)?
Answer: 0.368

Question: What about the relative viability (NCI-H2342; first compound 0.01 µM) of the same compound?
Answer: 0.708

Question: What about the relative viability (NCI-H2342; first compound 0.03162 µM) of the same compound?
Answer: 0.828

Question: What about the relative viability (NCI-H2342; first compound 0.1 µM) of the same compound?
Answer: 0.748

Question: What about the relative viability (NCI-H2342; first compound 0.3162 µM) of the same compound?
Answer: 0.729

Question: What about the relative viability (NCI-H2342; first compound 1 µM) of the same compound?
Answer: 0.637

Question: And the relative viability (HCC-827; first compound 0.01 µM)?
Answer: 0.897

Question: And the relative viability (HCC-827; first compound 0.03162 µM)?
Answer: 0.848

Question: And the relative viability (HCC-827; first compound 0.1 µM)?
Answer: 0.643

Question: What about the relative viability (HCC-827; first compound 0.3162 µM) of the same compound?
Answer: 0.779

Question: And the relative viability (HCC-827; first compound 1 µM)?
Answer: 0.774

Question: What about the relative viability (LU99A; first compound 0.01 µM) of the same compound?
Answer: 0.489

Question: What about the relative viability (LU99A; first compound 0.03162 µM) of the same compound?
Answer: 0.491

Question: And the relative viability (LU99A; first compound 0.1 µM)?
Answer: 0.446

Question: What about the relative viability (LU99A; first compound 0.3162 µM) of the same compound?
Answer: 0.512

Question: What about the relative viability (LU99A; first compound 1 µM) of the same compound?
Answer: 0.491

Question: What about the relative viability (NCI-H2085; first compound 0.01 µM) of the same compound?
Answer: 0.779

Question: What about the relative viability (NCI-H2085; first compound 0.03162 µM) of the same compound?
Answer: 0.783

Question: What about the relative viability (NCI-H2085; first compound 0.1 µM) of the same compound?
Answer: 0.755

Question: And the relative viability (NCI-H2085; first compound 0.3162 µM)?
Answer: 0.788

Question: And the relative viability (NCI-H2085; first compound 1 µM)?
Answer: 0.753

Question: And the relative viability (COR-L 105; first compound 0.01 µM)?
Answer: 0.764

Question: What about the relative viability (COR-L 105; first compound 0.03162 µM) of the same compound?
Answer: 0.788

Question: What about the relative viability (COR-L 105; first compound 0.1 µM) of the same compound?
Answer: 0.899

Question: What about the relative viability (COR-L 105; first compound 0.3162 µM) of the same compound?
Answer: 0.911

Question: And the relative viability (COR-L 105; first compound 1 µM)?
Answer: 0.918

Question: What about the relative viability (EPLC-272H; first compound 0.01 µM) of the same compound?
Answer: 0.539

Question: What about the relative viability (EPLC-272H; first compound 0.03162 µM) of the same compound?
Answer: 0.4

Question: What about the relative viability (EPLC-272H; first compound 0.1 µM) of the same compound?
Answer: 0.54

Question: What about the relative viability (EPLC-272H; first compound 0.3162 µM) of the same compound?
Answer: 0.358

Question: And the relative viability (EPLC-272H; first compound 1 µM)?
Answer: 0.5

Question: What about the relative viability (NCI-H2170; first compound 0.01 µM) of the same compound?
Answer: 0.804

Question: What about the relative viability (NCI-H2170; first compound 0.03162 µM) of the same compound?
Answer: 0.882

Question: And the relative viability (NCI-H2170; first compound 0.1 µM)?
Answer: 0.697

Question: What about the relative viability (NCI-H2170; first compound 0.3162 µM) of the same compound?
Answer: 0.784

Question: What about the relative viability (NCI-H2170; first compound 1 µM) of the same compound?
Answer: 0.824

Question: What about the relative viability (NCI-H2087; first compound 0.01 µM) of the same compound?
Answer: 0.474

Question: And the relative viability (NCI-H2087; first compound 0.03162 µM)?
Answer: 0.637

Question: And the relative viability (NCI-H2087; first compound 0.1 µM)?
Answer: 0.8

Question: And the relative viability (NCI-H2087; first compound 0.3162 µM)?
Answer: 0.64

Question: What about the relative viability (NCI-H2087; first compound 1 µM) of the same compound?
Answer: 0.745

Question: And the relative viability (BEN; first compound 0.01 µM)?
Answer: 0.56

Question: What about the relative viability (BEN; first compound 0.03162 µM) of the same compound?
Answer: 0.627

Question: And the relative viability (BEN; first compound 0.1 µM)?
Answer: 0.49

Question: What about the relative viability (BEN; first compound 0.3162 µM) of the same compound?
Answer: 0.583

Question: What about the relative viability (BEN; first compound 1 µM) of the same compound?
Answer: 0.655
